From CN103483288A, “一类3,4-二氯异噻唑双酰肼类化合物及其制备方法和用途” (priority 2013, dated 2014) come the findings set out here.

Where two headings read alike, the source gives them in different places.

Holding throughout (format): in vivo
Data set [1] has as its system tobacco mosaic virus (烟草花叶病毒(TMV)). As to the kind of experiment: 直接抗TMV活性, 半叶法. The note with it: for inhibition at 100 µg/mL: Tobacco mosaic virus.
Data set [2] shares this test system. The data set can be described thus: 诱导烟草抗TMV活性 (活体诱导). The note with it: for inhibition at 100 µg/mL: Tobacco mosaic virus, read-out: antiviral activity (inhibition rate): induction activity.
For data set [3], the system named is diamondback moth (小菜蛾). The data set can be described thus: 小菜蛾杀虫活性, 叶片药膜法. To be noted: for mortality at 200 µg/mL: Plutella xylostella, read-out: kill rate.
Where [4] appears, read: TMV, 100 mg/L, read-out: antiviral activity (inhibition rate): curative activity.
The mark [5] stands for this setting: TMV, 100 mg/L, read-out: antiviral activity (inhibition rate): inactivation activity.
[6] abbreviates: TMV, 100 mg/L, read-out: antiviral activity (inhibition rate): protective activity.
Where [7] appears, read: induced resistance of tobacco to TMV, 100 mg/L.
Setting [8] is: induced resistance of tobacco to TMV.
The mark [9] stands for this setting: 200 mg/L, 2nd instar larvae, 96 h or 120 h.

For orientation: inhibition means how much of the control response was suppressed. Turning to `NC(=O)c1ncn([C@@H]2O[C@H](CO)[C@@H](O)[C@H]2O)n1` [病毒唑], the “direct antiviral activity (in words)” value in data set [1] (TMV) was “具有很好的直接抗病毒活性”. For the same compound, the inhibition at 100 µg/mL in data set [1] (setting [4]) worked out at 44.1 ± 2.94%; in data set [1] (setting [5]) it was 25.6 ± 3.87%; in data set [1] (setting [6]), 46 ± 4.2%; in data set [2] (setting [7]), 27.1 ± 4.39%. Moreover, in data set [2] (setting [8]), the “induction activity (in words)” value is “几乎没有诱导活性”.

For the compound `CNCC(=O)NC(CO)C(=O)NC1C(C(N)=O)OC(n2ccc(N)nc2=O)C(O)C1O` (stereo not shown) [宁南霉素], in data set [1] (TMV), the “direct antiviral activity (in words)” value is recorded as “具有很好的直接抗病毒活性”. Further, the inhibition at 100 µg/mL came to 41.7 ± 2.25% in data set [1] (read-out: antiviral activity (inhibition rate): curative activity), 43.1 ± 4.07% in data set [1] (read-out: antiviral activity (inhibition rate): inactivation activity), 42.9 ± 1.59% in data set [1] (read-out: antiviral activity (inhibition rate): protective activity) and 25 ± 3.75% in data set [2]. Moreover, the “induction activity (in words)” value in data set [2] (setting [8]) is “几乎没有诱导活性”.

`O=[N+]([O-])NC1=NCCN1Cc1ccc(Cl)nc1` [吡虫啉] showed a kill rate in data set [3] (setting [9]) of 0%. For the same compound, in data set [3], the mortality at 200 µg/mL stood at 0%.

With `Cc1ccc(NC(=O)c2snnc2C)cc1Cl` [TDL, 噻酰菌胺], the inhibition at 100 µg/mL in data set [1] (setting [4]) is 23.5 ± 4.41%; in data set [1] (setting [5]), 20.5 ± 3.88%; in data set [1] (setting [6]) it was 20.1 ± 6.41%; in data set [2] (setting [7]) it was 47.5 ± 3.75%. The “induction activity (in words)” value in data set [2] (setting [8]) is given as “具有很好的诱导烟草产生对TMV的抗性”. Besides, the “antiviral activity (inhibition rate): induction activity” value in data set [2] (setting [7]) was determined as 47%.

With `CNC(=O)c1cc(Cl)cc(C)c1NC(=O)c1cc(Br)nn1-c1ncccc1Cl` [氯虫苯甲酰胺], in data set [3] (setting [9]), the kill rate amounted to 100% and the mortality at 200 µg/mL turned out to be 100%.
